From BindingDB's records for patent US20240400579 (Genentech, 2024)

What was measured:
[1] = molecular target: T1, 3-beta-hydroxysteroid-Delta(8),Delta(7)-isomerase (Homo sapiens, UniProt Q15125); assay: Determination of Binding Affinity to EBP-7-Dehydrocholesterol Reductase
Protocol: Compounds were prepared in a 96-well U bottom plate using an Echo550 machine and 10 mM compound DMSO stock solution, followed by an 8-dose 5-fold serial dilutions protocol with final testing compound concentration ranging from 0.06 to 5000 nM, with DMSO back fill to 100 nL/well and n=2. […] The UniFilter-96 GF/B plates were pre-treated by adding 50 μl/well of 0.3% (v/v) PEI to UniFilter-96 GF/B plates. The plates were sealed and incubated at 4° C. for 3 hrs. Then, the plates were washed with ice-cold assay buffer 3 times. The radioligand binding assay was prepared by adding assay buffer diluted hEBP-DHCR7 membrane at 66.7 μg/ml x 150 μl/well into the 96-well compound plate to reach 10 μg membrane per well. Then, the assay buffer diluted [3H]-Compound 118A* was added at 25 nM×50 μl/well. Following this, the plate was centrifuged at 1000 rpm for 30 secs. The plate was then sealed and agitated at 600 rpm at 22° C. for 5 min, and then incubated at 22° C. for 3 hrs. The incubation was stopped by transferring the binding solution to the pre-treated UniFilter-96 GF/B plate, vacuum filtrated, and then washed four times with ice-cold assay buffer. Following this, the plates were dried at 37° C. for 45 min. The plates were then sealed at the bottom. 40 μl/well of scintillation cocktail was added to the plates. A MicroBeta2 microplate counter was then used to read the plate and analyze the data. For reference and test compounds, the results are expressed as % Inhibition, using the normalization equation: N=100-100×(U−C2)/(C1−C2), where U is the unknown value, C1 is the average of high controls, and C2 is the average value of low controls. The IC50 was determined by fitting percentage of inhibition as a function of compound concentrations with Hill equation using XLfit.

[2] = molecular target: T1, 3-beta-hydroxysteroid-Delta(8),Delta(7)-isomerase; assay: Determination of Binding Affinity to EBP
Protocol: This binding solution was centrifuged at 400 g for 5 minutes to collect the bead/membrane mixture. After re-suspending the pellet in binding buffer at the same calculated volume with 0.01% BSA (Sigma A1933), the bead/membrane mixture was added in 384-well low-binding surface plate (PerkinElmer Cat #6057480) at 25 i/well. Radioligand at different concentrations with and without the non-radio-labeled same ligand 5 uM (for nonspecific and total signal, respectively) was added to bring final volume to 50 i/well with DMSO concentration at 0.1%. At equilibrium (3 hours after ligand addition), radiometric signal CPM was counted by using a Microbeta2 microplate counter (Perkinelmer).

T1 sequence (Q15125 whole entry): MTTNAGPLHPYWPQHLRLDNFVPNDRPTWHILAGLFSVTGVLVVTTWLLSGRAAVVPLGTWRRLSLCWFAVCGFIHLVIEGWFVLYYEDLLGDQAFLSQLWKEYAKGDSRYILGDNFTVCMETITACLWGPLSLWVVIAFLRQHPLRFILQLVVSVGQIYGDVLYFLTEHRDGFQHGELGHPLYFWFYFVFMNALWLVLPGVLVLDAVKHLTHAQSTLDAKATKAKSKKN

| SMILES | Ki [1] [µM] | Ki [2] [µM] |
| --- | --- | --- |
| O=S1(=O)CC2(CCN(CCOc3cnc(C(F)(F)F)c(Cl)c3)CC2)C1 [US20240400579, Example 242] | 0.0131 | – |
| CC(C)(Cc1ccc(C(F)(F)F)cc1)CN1CCC2(C1)CS(=O)(=O)C2 [US20240400579, Example 125] | 0.00402 | 0.056 |

Next, values leading:

| Ki [1] [µM] | Ki [2] [µM] | SMILES |
| --- | --- | --- |
| 0.0185 | – | C[C@H](Cc1ccc(C2CCCCO2)c(Cl)c1)CN1CCC2(C1)CS(=O)(=O)C2 (stereo partly specified) [US20240400579, Example 124A] |
| 0.00945 | – | O=S1(=O)CC2(CCN(CCCc3ccc(C(F)(F)F)cc3)C2)C1 [US20240400579, Example 113] |
| 0.0253 | – | C[C@@H](Cc1ccc([C@@H]2CCCCO2)c(Cl)c1)CN1CCC2(C1)CS(=O)(=O)C2 [US20240400579, Example 124B] |
